Patent US8802597B2, “Herbicidal pyrimidines” (E I du Pont de Nemours and Company, priority 2003, dated 2014)

How the values were obtained:
Assay type in all cases: in vivo
[1] = system: Surinam grass (Brachiaria decumbens); assay: Test B pre/postemergence
Excerpt: (§1) Seeds selected from barnyardgrass (Echinochloa crus-galli), Surinam grass (Brachiaria decumbens), cocklebur (Xanthium strumarium), corn (Zea mays), crabgrass (Digitaria sanguinalis), giant foxtail (Setaria faberii), lambsquarters (Chenopodium album), morningglory (Ipomoea coccinea), pigweed (Amaranthus retroflexus), velvetleaf (Abutilon theophrasti), and wheat (Triticum aestivum) were planted and treated preemergence with test chemicals formulated in a non-phytotoxic solvent mixture which included a surfactant.
(§2) At the same time, plants selected from these crop and weed species and also blackgrass (Alopecurus myosuroides) and wild oat (Avena fatua) were treated with postemergence applications of test chemicals formulated in the same manner. Plants ranged in height from 2 to 18 cm (1- to 4-leaf stage) for postemergence treatments. Plant species in the flooded paddy test consisted of rice (Oryza sativa), umbrella sedge (Cyperus difformis), duck salad (Heteranthera limosa) and barnyardgrass (Echinochloa crus-galli) grown to the 2-leaf stage for testing. Treated plants and controls were maintained in a greenhouse for 13 to 15 days, after which time all species were compared to controls and visually evaluated. Plant response ratings, summarized in Table B, are based on a scale of 0 to 100 where 0 is no effect and 100 is complete control. A dash (-) response means no test result.

[2] = system: barnyardgrass (Echinochloa crus-galli); assay: Test B pre/postemergence
Excerpt: as §1, §2

[3] = system: cocklebur (Xanthium strumarium); assay: Test B pre/postemergence
Excerpt: as §1, §2

corn (Zea mays) = assay: Test B pre/postemergence
Excerpt: as §1, §2

[4] = system: crabgrass (Digitaria sanguinalis); assay: Test B pre/postemergence
Excerpt: as §1, §2

[5] = system: giant foxtail (Setaria faberii); assay: Test B pre/postemergence
Excerpt: as §1, §2

[6] = system: lambsquarters (Chenopodium album); assay: Test B pre/postemergence
Excerpt: as §1, §2

[7] = system: morningglory (Ipomoea coccinea); assay: Test B pre/postemergence
Excerpt: as §1, §2

[8] = system: pigweed (Amaranthus retroflexus); assay: Test B pre/postemergence
Excerpt: as §1, §2

[9] = system: velvetleaf (Abutilon theophrasti); assay: Test B pre/postemergence
Excerpt: as §1, §2

[10] = system: wheat (Triticum aestivum); assay: Test B pre/postemergence
Excerpt: as §1, §2

[11] = system: blackgrass (Alopecurus myosuroides); assay: Test B postemergence; conditions: for Blackgrass plant response rating: scale 0 to 100 (0 no effect, 100 complete control); for Plant response rating, Blackgrass: scale 0 to 100
How it was run: (§3)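 Plants treated pre- or postemergence were compared visually with controls after 13 to 15 days. Ratings ran from 0, no effect, to 100, complete control.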

wild oat (Avena fatua) = assay: Test B postemergence; conditions: for Oat, Wild plant response rating: scale 0 to 100 (0 no effect, 100 complete control); for Plant response rating, Oat, Wild: scale 0 to 100
How it was run: as §3

[12] = system: barnyardgrass (Echinochloa crus-galli); assay: Test B flooded paddy test; conditions: Flood, 1000 g ai/ha; scale 0 (no effect) to 100 (complete control)
Protocol: as §2

[13] = system: duck salad (Heteranthera limosa); assay: Test B flooded paddy test; conditions: Flood, 1000 g ai/ha; scale 0 to 100
Protocol: as §2

rice (Oryza sativa) = assay: Test B flooded paddy test; conditions: Flood, 1000 g ai/ha; scale 0 to 100
Protocol: as §2

[14] = system: umbrella sedge (Cyperus difformis); assay: Test B flooded paddy test; conditions: Flood, 1000 g ai/ha; scale 0 to 100
Protocol: as §2

[15] = Postemergence, 125 g ai/ha, scale 0 to 100 (0 no effect, 100 complete control)
[16] = Postemergence, 500 g ai/ha, scale 0 to 100
[17] = Preemergence, 125 g ai/ha, scale 0 to 100 (0 no effect, 100 complete control)
[18] = Preemergence, 500 g ai/ha, scale 0 to 100 (0 no effect, 100 complete control)
[19] = Postemergence, 62 g ai/ha, scale 0 to 100 (0 no effect, 100 complete control)
[20] = Postemergence, 250 g ai/ha, scale 0 to 100
[21] = Preemergence, 62 g ai/ha, scale 0 to 100, 0 no effect, 100 complete control
[22] = Preemergence, 250 g ai/ha, scale 0 to 100 (0 no effect, 100 complete control)

Structure (SMILES): CCOC(=O)c1nc(C2CC2)nc(NCCN(C)C)c1Br [Compound 38]
- Surinam Grass plant response rating [1, 15]: 0
- Plant response rating, Surinam Grass [1, 16]: 20
- Plant response rating, Surinam Grass [1, 17]: 0
- Surinam Grass plant response rating [1, 18]: 0
- Barnyardgrass plant response rating [2, 15]: 0
- Plant response rating, Barnyardgrass [2, 16]: 0
- Plant response rating, Barnyardgrass [2, 17]: 0
- Barnyardgrass plant response rating [2, 18]: 0
- Cocklebur plant response rating [3, 15]: 0
- Plant response rating, Cocklebur [3, 16]: 0
- Plant response rating, Cocklebur [3, 17]: 0
- Cocklebur plant response rating [3, 18]: 0
- Corn plant response rating (corn (Zea mays); [15]): 0
- Plant response rating, Corn (corn (Zea mays); [16]): 0
- Plant response rating, Corn (corn (Zea mays); [17]): 0
- Corn plant response rating (corn (Zea mays); [18]): 10
- Crabgrass plant response rating [4, 15]: 0
- Plant response rating, Crabgrass [4, 16]: 20
- Plant response rating, Crabgrass [4, 17]: 0
- Crabgrass plant response rating [4, 18]: 0
- Foxtail, Giant plant response rating [5, 15]: 0
- Plant response rating, Foxtail, Giant [5, 16]: 0
- Plant response rating, Foxtail, Giant [5, 17]: 0
- Foxtail, Giant plant response rating [5, 18]: 0
- Lambsquarters plant response rating [6, 15]: 20
- Plant response rating, Lambsquarters [6, 16]: 60
- Plant response rating, Lambsquarters [6, 17]: 20
- Lambsquarters plant response rating [6, 18]: 90
- Morningglory plant response rating [7, 15]: 10
- Plant response rating, Morningglory [7, 16]: 40
- Plant response rating, Morningglory [7, 17]: 0
- Morningglory plant response rating [7, 18]: 50
- Pigweed plant response rating [8, 15]: 30
- Plant response rating, Pigweed [8, 16]: 30
- Plant response rating, Pigweed [8, 17]: 10
- Pigweed plant response rating [8, 18]: 70
- Velvetleaf plant response rating [9, 15]: 0
- Plant response rating, Velvetleaf [9, 16]: 50
- Plant response rating, Velvetleaf [9, 17]: 0
- Velvetleaf plant response rating [9, 18]: 0
- Wheat plant response rating [10, 15]: 0
- Plant response rating, Wheat [10, 16]: 0
- Plant response rating, Wheat [10, 17]: 0
- Plant response rating, Wheat [10, 18]: 0
- Blackgrass plant response rating ([11]; 125 g ai/ha): 0
- Plant response rating, Blackgrass ([11]; 500 g ai/ha): 0
- Oat, Wild plant response rating (wild oat (Avena fatua); 125 g ai/ha): 0
- Plant response rating, Oat, Wild (wild oat (Avena fatua); 500 g ai/ha): 0
- Plant response rating, Barnyardgrass [12]: 0
- Plant response rating, Ducksalad [13]: 0
- Plant response rating, Rice (rice (Oryza sativa)): 0
- Plant response rating, Sedge, Umbrella [14]: 0

Structure (SMILES): CC=NNc1nc(C2CC2)nc(C(=O)OC)c1Br [Compound 124]
- Surinam Grass plant response rating [1, 15]: 0
- Plant response rating, Surinam Grass [1, 16]: 0
- Plant response rating, Surinam Grass [1, 17]: 0
- Plant response rating, Surinam Grass [1, 18]: 0
- Barnyardgrass plant response rating [2, 15]: 0
- Plant response rating, Barnyardgrass [2, 16]: 40
- Plant response rating, Barnyardgrass [2, 17]: 0
- Plant response rating, Barnyardgrass [2, 18]: 0
- Cocklebur plant response rating [3, 15]: 30
- Plant response rating, Cocklebur [3, 16]: 80
- Plant response rating, Cocklebur [3, 17]: 10
- Plant response rating, Cocklebur [3, 18]: 60
- Corn plant response rating (corn (Zea mays); [15]): 0
- Plant response rating, Corn (corn (Zea mays); [16]): 0
- Plant response rating, Corn (corn (Zea mays); [17]): 0
- Plant response rating, Corn (corn (Zea mays); [18]): 0
- Crabgrass plant response rating [4, 15]: 10
- Plant response rating, Crabgrass [4, 16]: 40
- Plant response rating, Crabgrass [4, 17]: 0
- Plant response rating, Crabgrass [4, 18]: 0
- Foxtail, Giant plant response rating [5, 15]: 10
- Plant response rating, Foxtail, Giant [5, 16]: 20
- Plant response rating, Foxtail, Giant [5, 17]: 0
- Plant response rating, Foxtail, Giant [5, 18]: 0
- Lambsquarters plant response rating [6, 15]: 40
- Plant response rating, Lambsquarters [6, 16]: 90
- Plant response rating, Lambsquarters [6, 17]: 0
- Plant response rating, Lambsquarters [6, 18]: 70
- Morningglory plant response rating [7, 15]: 50
- Plant response rating, Morningglory [7, 16]: 100
- Plant response rating, Morningglory [7, 17]: 10
- Plant response rating, Morningglory [7, 18]: 60
- Pigweed plant response rating [8, 15]: 50
- Plant response rating, Pigweed [8, 16]: 90
- Plant response rating, Pigweed [8, 17]: 20
- Plant response rating, Pigweed [8, 18]: 70
- Velvetleaf plant response rating [9, 15]: 20
- Plant response rating, Velvetleaf [9, 16]: 50
- Plant response rating, Velvetleaf [9, 17]: 20
- Plant response rating, Velvetleaf [9, 18]: 50
- Wheat plant response rating [10, 15]: 0
- Plant response rating, Wheat [10, 16]: 30
- Plant response rating, Wheat [10, 17]: 0
- Plant response rating, Wheat [10, 18]: 0
- Blackgrass plant response rating ([11]; 125 g ai/ha): 0
- Plant response rating, Blackgrass ([11]; 500 g ai/ha): 40
- Oat, Wild plant response rating (wild oat (Avena fatua); 125 g ai/ha): 0
- Plant response rating, Oat, Wild (wild oat (Avena fatua); 500 g ai/ha): 30
- Plant response rating, Barnyardgrass [12]: 0
- Plant response rating, Ducksalad [13]: 0
- Plant response rating, Rice (rice (Oryza sativa)): 0
- Plant response rating, Sedge, Umbrella [14]: 0

Structure (SMILES): CCOC(OCC)c1nc(C2CC2)nc(N)c1Br [Compound 45]
- Surinam Grass plant response rating [1, 19]: 0
- Plant response rating, Surinam Grass [1, 20]: 0
- Plant response rating, Surinam Grass [1, 21]: 0
- Plant response rating, Surinam Grass [1, 22]: 0
- Barnyardgrass plant response rating [2, 19]: 0
- Plant response rating, Barnyardgrass [2, 20]: 0
- Plant response rating, Barnyardgrass [2, 21]: 0
- Plant response rating, Barnyardgrass [2, 22]: 0
- Cocklebur plant response rating [3, 19]: 0
- Plant response rating, Cocklebur [3, 20]: 10
- Plant response rating, Cocklebur [3, 22]: 0
- Corn plant response rating (corn (Zea mays); [19]): 0
- Plant response rating, Corn (corn (Zea mays); [20]): 0
- Plant response rating, Corn (corn (Zea mays); [21]): 0
- Crabgrass plant response rating [4, 19]: 0
- Plant response rating, Crabgrass [4, 20]: 20
- Plant response rating, Crabgrass [4, 21]: 0
- Plant response rating, Crabgrass [4, 22]: 0
- Foxtail, Giant plant response rating [5, 19]: 0
- Plant response rating, Foxtail, Giant [5, 20]: 0
- Plant response rating, Foxtail, Giant [5, 21]: 0
- Plant response rating, Foxtail, Giant [5, 22]: 0
- Lambsquarters plant response rating [6, 19]: 10
- Plant response rating, Lambsquarters [6, 20]: 30
- Plant response rating, Lambsquarters [6, 21]: 0
- Plant response rating, Lambsquarters [6, 22]: 30
- Morningglory plant response rating [7, 19]: 40
- Plant response rating, Morningglory [7, 20]: 60
- Plant response rating, Morningglory [7, 21]: 30
- Plant response rating, Morningglory [7, 22]: 50
- Pigweed plant response rating [8, 19]: 30
- Plant response rating, Pigweed [8, 20]: 50
- Plant response rating, Pigweed [8, 21]: 0
- Plant response rating, Pigweed [8, 22]: 50
- Velvetleaf plant response rating [9, 19]: 0
- Plant response rating, Velvetleaf [9, 20]: 20
- Plant response rating, Velvetleaf [9, 21]: 0
- Plant response rating, Velvetleaf [9, 22]: 0
- Wheat plant response rating [10, 19]: 0
- Plant response rating, Wheat [10, 20]: 0
- Plant response rating, Wheat [10, 21]: 0
- Plant response rating, Wheat [10, 22]: 0
- Blackgrass plant response rating ([11]; 62 g ai/ha): 0
- Plant response rating, Blackgrass ([11]; 250 g ai/ha): 0
- Oat, Wild plant response rating (wild oat (Avena fatua); 62 g ai/ha): 0
- Plant response rating, Oat, Wild (wild oat (Avena fatua); 250 g ai/ha): 0
- Plant response rating, Barnyardgrass [12]: 0
- Plant response rating, Ducksalad [13]: 0
- Plant response rating, Rice (rice (Oryza sativa)): 0
- Plant response rating, Sedge, Umbrella [14]: 0
